Test results: patent publication US12064459B2, “Compositions and methods for improving skin health and for the treatment and prevention of diseases, disorders and conditions associated with pathogenic microbes” (priority 2019, dated 2024)
Converted amounts (≈) assume the structure as drawn. Like-named read-outs stand apart in the source and are kept apart here. Where a SMILES comes first, the peptide text is derived from it.

Key:
DBI001 = assay: Biolog phenotype MicroArrays: components enhancing function (efficacy) against fungal or bacterial pathogens; format: cell-based; conditions: enhancing function of human-derived Janthinobacterium lividum
DB00118 = assay: Antibiotic MIC tests; format: cell-based, Janthinobacterium lividum; conditions: strain DB00118
Protocol: (§1) The antibiotic resistance profile and MICs tests were performed using Janthinobacterium lividum grown from cultures purified and grown in vegitone LB broth.

DB02378 = assay: Antibiotic MIC tests; format: cell-based, Janthinobacterium lividum; conditions: strain DB02378
Protocol: as §1

DB02473 = assay: Antibiotic MIC tests; format: cell-based, Janthinobacterium lividum; conditions: strain DB02473
Protocol: as §1

DB00121 = assay: Antibiotic MIC tests; format: cell-based, Janthinobacterium lividum; conditions: strain DB00121
Protocol: as §1

E. Coli ATCC25922 = assay: Antibiotic MIC tests; format: cell-based; conditions: Escherichia coli
[1] = Janthinobacterium lividum, read-out: MIC

| Compound | Concentration Range of Efficacy (DBI001) | other results |
| --- | --- | --- |
| Tween 40 | 2 to 20 mM |  |
| CC(O)CO (centres unmarked) [1,2-Propanediol] | 2 to 20 mM |  |
| CO[C@H]1O[C@H](CO)[C@@H](O)[C@H](O)[C@H]1O [α-Methyl-D-Glucoside] | 1 to 5 mM |  |
| OC[C@H]1O[C@@](CO)(O[C@H]2O[C@H](CO)[C@@H](O)[C@H](O)[C@H]2O)[C@@H](O[C@H]2O[C@H](CO)[C@@H](O)[C@H](O)[C@H]2O)[C@@H]1O [D-Melezitose] | 1 to 5 mM |  |
| O=P(O)(O)OCC(O)CO (racemic) [D,L-α-Glycerol Phosphate] | 2 to 20 mM |  |
| O=C(CO)[C@@H](O)[C@H](O)[C@H](O)CO [D-Fractose] | 2 to 20 mM |  |
| OC[C@@H](O)C(O)[C@H](O)CO [D-Arabitol] | 1 to 5 mM |  |
| O=NO [Nitrite] | 0.1 to 1 mM |  |
| OC[C@@H](O)[C@@H](O[C@H]1O[C@H](CO)[C@@H](O)[C@H](O)[C@H]1O)[C@H](O)[C@@H](O)CO [Maltitol] | 1 to 5 mM |  |
| CO/N=C(\C(=O)N[C@@H]1C(=O)N2C(C(=O)O)=C(CSc3nc(=O)c(=O)[nH]n3C)CS[C@H]12)c1csc(N)n1 [Ceftriaxone] |  | MIC (DB00118; [1]): 0.5 µg/mL (≈ 0.902 µM); MIC (DB02378; [1]): 0.25 µg/mL (≈ 0.451 µM); MIC (DB02473; [1]): 0.5 µg/mL (≈ 0.902 µM); MIC (DB00121; [1]): 0.25 µg/mL (≈ 0.451 µM); MIC (E. Coli ATCC25922): < 0.063 µg/mL |
| O=C(O)[C@@H](O)[C@H](O)C(=O)O [D-Tartaric acid] | 1 to 5 mM |  |
| Nc1ncnc2c1ncn2C1CC(O)C(CO)O1 (centres unmarked) [2-Deoxy Adenosine] | 2 to 20 mM |  |
| Inulin | 1 to 5 mM |  |
| Pectin | 1 to 5 mM |  |
| COC1OC(CO)C(O)C(O)C1O [α-Methyl-D-Mannoside] | 1 to 5 mM |  |
| NC(N)=O [Urea] | 0.1 to 1 mM |  |
| Chondroitin Sulfate C | 1 to 5 mM |  |
| O=P(O)(O)O[C@H]1O[C@H](CO)[C@@H](O)[C@H](O)[C@H]1O [D-Glucose-1-Phosphate] | 2 to 20 mM |  |
| CC(O)C(N)=O (racemic) [D,L-Lactamide] | 0.1 to 1 mM |  |
| OC[C@H]1O[C@@H]2O[C@H]3[C@H](O)[C@@H](O)[C@@H](O[C@H]4[C@H](O)[C@@H](O)[C@@H](O[C@H]5[C@H](O)[C@@H](O)[C@@H](O[C@H]6[C@H](O)[C@@H](O)[C@@H](O[C@H]7[C@H](O)[C@@H](O)[C@@H](O[C@H]8[C@H](O)[C@@H](O)[C@@H](O[C@H]1[C@H](O)[C@H]2O)O[C@@H]8CO)O[C@@H]7CO)O[C@@H]6CO)O[C@@H]5CO)O[C@@H]4CO)O[C@@H]3CO [β-Cyclodextrin] | 1 to 5 mM |  |
| OC[C@H]1O[C@@H]2O[C@H]3[C@H](O)[C@@H](O)[C@@H](O[C@H]4[C@H](O)[C@@H](O)[C@@H](O[C@H]5[C@H](O)[C@@H](O)[C@@H](O[C@H]6[C@H](O)[C@@H](O)[C@@H](O[C@H]7[C@H](O)[C@@H](O)[C@@H](O[C@H]1[C@H](O)[C@H]2O)O[C@@H]7CO)O[C@@H]6CO)O[C@@H]5CO)O[C@@H]4CO)O[C@@H]3CO [α-Cyclodextrin] | 1 to 5 mM |  |
| O=CC[C@H](O)[C@H](O)CO [2-Deoxy-DRibose] | 1 to 5 mM |  |
| dextrin | 1 to 5 mM |  |
| CO/N=C(\C(=O)N[C@@H]1C(=O)N2C(C(=O)[O-])=C(C[N+]3(C)CCCC3)CS[C@H]12)c1csc(N)n1 [Cefepime] |  | MIC (DB00118; [1]): 0.25 µg/mL (≈ 0.52 µM); MIC (E. Coli ATCC25922): < 0.063 µg/mL |
| O=C1CCC(C(=O)O)O1 (stereo not drawn) [α-Hydroxy Glutaric Acid-g-Lactone] | 2 to 20 mM |  |
| CN(C)[C@@H]1C(O)=C(C(N)=O)C(=O)[C@@]2(O)C(O)=C3C(=O)c4c(O)cccc4[C@@](C)(O)[C@H]3C[C@@H]12 [Tetracycline] |  | MIC (DB00118; [1]): 0.5 µg/mL (≈ 1.13 µM); MIC (DB02378; [1]): 0.5 µg/mL (≈ 1.13 µM); MIC (DB02473; [1]): 0.5 µg/mL (≈ 1.13 µM); MIC (DB00121; [1]): 0.25 µg/mL (≈ 0.563 µM); MIC (E. Coli ATCC25922): 1 µg/mL (≈ 2.25 µM) |
| OC[C@H]1O[C@H](OC[C@H]2OC(O)(CO)[C@@H](O)[C@@H]2O)[C@H](O)[C@@H](O)[C@@H]1O (some centres unmarked) [Palatinose] | 1 to 5 mM |  |
| C[C@H]1COc2c(N3CCN(C)CC3)c(F)cc3c(=O)c(C(=O)O)cn1c23 [Levofloxacin] |  | MIC (DB00118; [1]): 0.25 µg/mL (≈ 0.692 µM); MIC (DB02378; [1]): 0.25 µg/mL (≈ 0.692 µM); MIC (DB02473; [1]): 0.25 µg/mL (≈ 0.692 µM); MIC (E. Coli ATCC25922): 0.063 µg/mL (≈ 0.174 µM) |

| Compound | Concentration Range of Efficacy (DBI001) | other results |
| --- | --- | --- |
| OC[C@H]1O[C@@H]2O[C@H]3[C@H](O)[C@@H](O)[C@@H](O[C@H]4[C@H](O)[C@@H](O)[C@@H](O[C@H]5[C@H](O)[C@@H](O)[C@@H](O[C@H]6[C@H](O)[C@@H](O)[C@@H](O[C@H]7[C@H](O)[C@@H](O)[C@@H](O[C@H]8[C@H](O)[C@@H](O)[C@@H](O[C@H]9[C@H](O)[C@@H](O)[C@@H](O[C@H]1[C@H](O)[C@H]2O)O[C@@H]9CO)O[C@@H]8CO)O[C@@H]7CO)O[C@@H]6CO)O[C@@H]5CO)O[C@@H]4CO)O[C@@H]3CO [g-Cyclodextrin] | 1 to 5 mM |  |
| COC1OC(CO)C(O)C(O)C1O [α-Methyl-D-Galactoside] | 2 to 20 mM |  |
| O=C[C@@H](O)[C@H](O[C@@H]1O[C@H](CO)[C@H](O)[C@H](O)[C@H]1O)[C@H](O)CO [3-0-β-D-Galactopyranosyl-D Arabinose] | 1 to 5 mM |  |
| CO[C@@H]1O[C@H](CO)[C@@H](O)[C@H](O)[C@H]1O [β-Methyl-D-Galactoside] | 1 to 5 mM |  |
| CO[C@@H]1O[C@H](C(=O)O)[C@@H](O)[C@H](O)[C@H]1O [β-Methyl-D-Glucuronic Acid] | 1 to 5 mM |  |
| COC1OCC(O)C(O)C1O [β-Methyl-D-Xyloside] | 1 to 5 mM |  |
| O=[N+]([O-])O [Nitrate] | 0.1 to 1 mM |  |
| CCC[C@@H]1C[C@@H](C(=O)N[C@@H]([C@H]2O[C@H](SC)[C@H](O)[C@@H](O)[C@H]2O)[C@H](C)Cl)N(C)C1 [Clindamycin] |  | MIC (DB00118; [1]): 32 µg/mL (≈ 75.3 µM); MIC (DB02378; [1]): 32 µg/mL (≈ 75.3 µM); MIC (DB02473; [1]): 16 µg/mL (≈ 37.6 µM); MIC (DB00121; [1]): 16 µg/mL (≈ 37.6 µM); MIC (E. Coli ATCC25922): < 64 µg/mL |
| OC[C@H](O)C(O)[C@@H](O)CO [L-Arabitol] | 1 to 5 mM |  |
| CC[C@H]1OC(=O)[C@H](C)[C@@H](O[C@H]2C[C@@](C)(OC)[C@@H](O)[C@H](C)O2)[C@H](C)[C@@H](O[C@@H]2O[C@H](C)C[C@H](N(C)C)[C@H]2O)[C@](C)(O)C[C@@H](C)CN(C)[C@H](C)[C@@H](O)[C@]1(C)O [Azithromycin] |  | MIC (DB00118; [1]): 8 µg/mL (≈ 10.7 µM); MIC (DB02378; [1]): 2 µg/mL (≈ 2.67 µM); MIC (DB02473; [1]): 1 µg/mL (≈ 1.34 µM); MIC (DB00121; [1]): 0.5 µg/mL (≈ 0.668 µM); MIC (E. Coli ATCC25922): 8 µg/mL (≈ 10.7 µM) |
| OC[C@H]1O[C@H](OCC2O[C@@H](O)[C@H](O)[C@@H](O)[C@@H]2O)[C@H](O)[C@@H](O)[C@H]1O (stereo partly drawn) [D-Melibiose] | 2 to 20 mM |  |
| O=C(O)[C@H]1OC(O)[C@H](O)[C@@H](O)[C@@H]1O (stereo partly drawn) [D-Glucoronic Acid] | 2 to 20 mM |  |
| Neomycin |  | MIC (DB00118): 2 µg/mL; MIC (DB02378): 2 µg/mL; MIC (DB02473): 2 µg/mL; MIC (DB00121): 1 µg/mL |
| C[C@H](N)C(=O)N[C@@H](CCC(=O)O)C(=O)O [Ala-Glu] (H-Ala-Glu-OH) | 0.1 to 1 mM |  |
| OC[C@@H](O)[C@H](O)[C@H](O)[C@@H](O)CO [Dulcitol] | 2 to 20 mM |  |
| CO[C@@H]1O[C@H](CO)[C@@H](O)[C@H](O)[C@H]1O [β-Methyl-D-Glucoside] | 2 to 20 mM |  |
| Laminarin | 1 to 5 mM |  |
| Glycogen | 1 to 5 mM |  |
| OC[C@@]12OC[C@@H](O1)[C@@H](O)[C@@H](O)[C@@H]2O [Sedoheptulosan] | 1 to 5 mM |  |
| CN(C)c1ccc(O)c2c1C[C@H]1C[C@H]3[C@H](N(C)C)C(O)=C(C(N)=O)C(=O)[C@@]3(O)C(O)=C1C2=O [Minocycline] |  | MIC (DB02473; [1]): 0.25 µg/mL (≈ 0.546 µM); MIC (DB00121; [1]): < 0.063 µg/mL; MIC (E. Coli ATCC25922): 0.25 µg/mL (≈ 0.546 µM) |
| OC[C@H]1O[C@@H](O[C@H]2[C@H](O)[C@@H](O)[C@H](O)O[C@@H]2CO)[C@H](O)[C@@H](O)[C@@H]1O [D-Cellobiose] | 2 to 20 mM |  |
| Maltotriose | 2 to 20 mM |  |
| OC[C@H]1O[C@H](OC[C@H]2O[C@H](OC[C@H]3O[C@H](O[C@]4(CO)O[C@H](CO)[C@@H](O)[C@@H]4O)[C@H](O)[C@@H](O)[C@@H]3O)[C@H](O)[C@@H](O)[C@H]2O)[C@H](O)[C@@H](O)[C@H]1O [Stachyose] | 1 to 5 mM |  |
| OC[C@@H](O)[C@@H](O)CO [i-Erythritol] | 1 to 5 mM |  |
| N[C@@H](C(=O)O)[C@@H](O)[C@H](O)[C@H](O)CO [D-Glucosaminic Acid] | 2 to 20 mM |  |
| Mannan | 1 to 5 mM |  |
| O=C(CO)[C@@H](O[C@H]1O[C@H](CO)[C@@H](O)[C@H](O)[C@H]1O)[C@H](O)[C@H](O)CO [Turanose] | 1 to 5 mM |  |
